Measured values from PubChem BioAssay AID2060507 (Molecular Pharmacology Branch, DTP, NCI, 2025).
One block for each compound: values may come before it.

Tested on: 519858-162-T-J1-PDC complex spheroid viability
Experiment: Anticancer human tumor 519858-162-T-J1-PDC patient-derived colon adenocarcinoma cell line growth inhibition [GQUAD]
Details: for IC50: curve of first compound; for viability, T/C: stronger effect = lower value
Summary of the method: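 Multi-cell-type spheroids of tumor cells with HUVEC and mesenchymal stem cells, treated with drug combinations. Concentrations descend in half-log steps from near clinical Cmax, or from 10 microM where Cmax is unknown; viability read-out.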

[1] = second compound 0.0316 µM, first compound 0.0316 µM
[2] = second compound 0.0316 µM, first compound 0.1 µM
[3] = second compound 0.0316 µM, first compound 0.316 µM
[4] = second compound 0.0316 µM, first compound 1 µM
[5] = second compound 0.0316 µM, first compound 3.16 µM
[6] = second compound 0.0316 µM, first compound 10 µM
[7] = second compound 0.1 µM, first compound 0.0316 µM
[8] = second compound 0.1 µM, first compound 0.1 µM
[9] = second compound 0.1 µM, first compound 0.316 µM
[10] = second compound 0.1 µM, first compound 1 µM
[11] = second compound 0.1 µM, first compound 3.16 µM
[12] = second compound 0.1 µM, first compound 10 µM
[13] = second compound 0.316 µM, first compound 0.0316 µM
[14] = second compound 0.316 µM, first compound 0.1 µM
[15] = second compound 0.316 µM, first compound 0.316 µM
[16] = second compound 0.316 µM, first compound 1 µM
[17] = second compound 0.316 µM, first compound 3.16 µM
[18] = second compound 0.316 µM, first compound 10 µM
[19] = second compound 1 µM, first compound 0.0316 µM
[20] = second compound 1 µM, first compound 0.1 µM
[21] = second compound 1 µM, first compound 0.316 µM
[22] = second compound 1 µM, first compound 1 µM
[23] = second compound 1 µM, first compound 3.16 µM
[24] = second compound 1 µM, first compound 10 µM
[25] = second compound 3.16 µM, first compound 0.0316 µM
[26] = second compound 3.16 µM, first compound 0.1 µM
[27] = second compound 3.16 µM, first compound 0.316 µM
[28] = second compound 3.16 µM, first compound 1 µM
[29] = second compound 3.16 µM, first compound 3.16 µM
[30] = second compound 3.16 µM, first compound 10 µM
[31] = second compound 10 µM, first compound 0.0316 µM
[32] = second compound 10 µM, first compound 0.1 µM
[33] = second compound 10 µM, first compound 0.316 µM
[34] = second compound 10 µM, first compound 1 µM
[35] = second compound 10 µM, first compound 3.16 µM
[36] = second compound 10 µM, first compound 10 µM
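Further: spheroids exposed to compounds for 7 days.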
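Wherever viability, T/C is given: 100% = DMSO vehicle control viability.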

Structure (SMILES): O=C(NO)c1cnc(N2CCN(S(=O)(=O)c3ccc4ccccc4c3)CC2)nc1 + Cc1[nH]c2ccc(F)cc2c1-c1nc2c3cccnc3c3ncccc3c2[nH]1
IC50 (second compound 0.0316 µM): 353 nM
IC50 (second compound 0.1 µM): 242 nM
IC50 (second compound 0.316 µM): 311 nM
IC50 (second compound 1 µM): 251 nM
IC50 (second compound 3.16 µM): 204 nM
IC50 (second compound 10 µM): 195 nM
viability, T/C [1]: 82.3%
viability, T/C [2]: 82.8%
viability, T/C [3]: 53.8%
viability, T/C [4]: 10%
viability, T/C [5]: 0.42%
viability, T/C [6]: 0.52%
viability, T/C [7]: 102%
viability, T/C [8]: 102%
viability, T/C [9]: 34.3%
viability, T/C [10]: 8.48%
viability, T/C [11]: 0.31%
viability, T/C [12]: 0.42%
viability, T/C [13]: 85.4%
viability, T/C [14]: 95.8%
viability, T/C [15]: 48.9%
viability, T/C [16]: 8.61%
viability, T/C [17]: 0.35%
viability, T/C [18]: 1.29%
viability, T/C [19]: 75.9%
viability, T/C [20]: 77.4%
viability, T/C [21]: 43%
viability, T/C [22]: 7.91%
viability, T/C [23]: 0.49%
viability, T/C [24]: 1.27%
viability, T/C [25]: 83%
viability, T/C [26]: 87.8%
viability, T/C [27]: 28.2%
viability, T/C [28]: 5.99%
viability, T/C [29]: 1.44%
viability, T/C [30]: 0.36%
viability, T/C [31]: 64.7%
viability, T/C [32]: 69.7%
viability, T/C [33]: 36.7%
viability, T/C [34]: 13.9%
viability, T/C [35]: 0.79%
viability, T/C [36]: 0.64%

Structure (SMILES): CCc1c2c(nc3ccc(O)cc13)-c1cc3c(c(=O)n1C2)COC(=O)[C@]3(O)CC + Cc1[nH]c2ccc(F)cc2c1-c1nc2c3cccnc3c3ncccc3c2[nH]1
IC50 (second compound 0.0316 µM): > 316 nM
IC50 (second compound 0.1 µM): > 316 nM
IC50 (second compound 0.316 µM): > 316 nM
IC50 (second compound 1 µM): > 316 nM
IC50 (second compound 3.16 µM): > 316 nM
IC50 (second compound 10 µM): < 0.999 nM
viability, T/C (second compound 0.0316 µM, first compound 0.000999 µM): 124%
viability, T/C (second compound 0.0316 µM, first compound 0.00316 µM): 86%
viability, T/C (second compound 0.0316 µM, first compound 0.00999 µM): 70.5%
viability, T/C [1]: 86.6%
viability, T/C (second compound 0.0316 µM, first compound 0.0999 µM): 56.6%
viability, T/C [3]: 62.8%
viability, T/C (second compound 0.1 µM, first compound 0.000999 µM): 85%
viability, T/C (second compound 0.1 µM, first compound 0.00316 µM): 96.9%
viability, T/C (second compound 0.1 µM, first compound 0.00999 µM): 63.7%
viability, T/C [7]: 63.2%
viability, T/C (second compound 0.1 µM, first compound 0.0999 µM): 84.2%
viability, T/C [9]: 52.9%
viability, T/C (second compound 0.316 µM, first compound 0.000999 µM): 99.9%
viability, T/C (second compound 0.316 µM, first compound 0.00316 µM): 105%
viability, T/C (second compound 0.316 µM, first compound 0.00999 µM): 60.8%
viability, T/C [13]: 53.9%
viability, T/C (second compound 0.316 µM, first compound 0.0999 µM): 63.4%
viability, T/C [15]: 59.4%
viability, T/C (second compound 1 µM, first compound 0.000999 µM): 89.8%
viability, T/C (second compound 1 µM, first compound 0.00316 µM): 75.2%
viability, T/C (second compound 1 µM, first compound 0.00999 µM): 78.2%
viability, T/C [19]: 83.6%
viability, T/C (second compound 1 µM, first compound 0.0999 µM): 54.6%
viability, T/C [21]: 62.8%
viability, T/C (second compound 3.16 µM, first compound 0.000999 µM): 68.5%
viability, T/C (second compound 3.16 µM, first compound 0.00316 µM): 53.3%
viability, T/C (second compound 3.16 µM, first compound 0.00999 µM): 47.8%
viability, T/C [25]: 61.1%
viability, T/C (second compound 3.16 µM, first compound 0.0999 µM): 80%
viability, T/C [27]: 49.9%
viability, T/C (second compound 10 µM, first compound 0.000999 µM): 39.9%
viability, T/C (second compound 10 µM, first compound 0.00316 µM): 50.2%
viability, T/C (second compound 10 µM, first compound 0.00999 µM): 69.7%
viability, T/C [31]: 56.6%
viability, T/C (second compound 10 µM, first compound 0.0999 µM): 74.5%
viability, T/C [33]: 76.2%

IC50 (second compound 0.0316 µM): 2150 nM
IC50 (second compound 0.1 µM): 1980 nM
IC50 (second compound 0.316 µM): 1450 nM
IC50 (second compound 1 µM): 262 nM
IC50 (second compound 3.16 µM): < 31.6 nM
IC50 (second compound 10 µM): 31.6 nM
Structure (SMILES): CC(C)(O)C1CCC(Nc2ccc3ncc(-c4cccc(C(F)(F)F)c4)n3n2)CC1 (stereo unspecified) + Cc1cnc(CNC(=O)c2c(=O)c3ccc(N4CCCN(C)CC4)nc3n3c2sc2ccccc23)cn1
viability, T/C [1]: 101%
viability, T/C [2]: 111%
viability, T/C [3]: 93.2%
viability, T/C [4]: 103%
viability, T/C [5]: 11%
viability, T/C [6]: 36.5%
viability, T/C [7]: 87.6%
viability, T/C [8]: 95.5%
viability, T/C [9]: 107%
viability, T/C [10]: 105%
viability, T/C [11]: 8.82%
viability, T/C [12]: 24.6%
viability, T/C [13]: 107%
viability, T/C [14]: 72.4%
viability, T/C [15]: 63.5%
viability, T/C [16]: 80.9%
viability, T/C [17]: 20.8%
viability, T/C [18]: 31.2%
viability, T/C [19]: 71.1%
viability, T/C [20]: 68.8%
viability, T/C [21]: 42.1%
viability, T/C [22]: 48.5%
viability, T/C [23]: 42.4%
viability, T/C [24]: 52.3%
viability, T/C [25]: 37.5%
viability, T/C [26]: 43.1%
viability, T/C [27]: 50.8%
viability, T/C [28]: 47.1%
viability, T/C [29]: 31.4%
viability, T/C [30]: 20.8%
viability, T/C [31]: 36.4%
viability, T/C [32]: 45.3%
viability, T/C [33]: 52.3%
viability, T/C [34]: 64.7%
viability, T/C [35]: 9.24%
viability, T/C [36]: 0.75%
